# Experimental data published in ChEMBL document CHEMBL1201862, “PubChem BioAssay data set” (2004).
# Calls of active or inactive are those of the source.
# Tests used:
# [1] = biological target: Matrix metalloproteinase-14 (Homo sapiens, UniProt P50281); experiment: Dose Response confirmation of uHTS hits for a small molecule inhibitors of MT1-MMP activation in a fluorescence assay set 2.; format: functional
# [2] = biological target: T1, Rac GTPase-activating protein 1 (Homo sapiens, UniProt Q9H0H5); experiment: blockers of MgcRacGAP-driven Rac1 GTP hydrolysis – biochemical, ADP Hunter fluorescence, primary and confirmatory, confirmation (AID 624330); format: functional
# T1 sequence (Q9H0H5 whole entry): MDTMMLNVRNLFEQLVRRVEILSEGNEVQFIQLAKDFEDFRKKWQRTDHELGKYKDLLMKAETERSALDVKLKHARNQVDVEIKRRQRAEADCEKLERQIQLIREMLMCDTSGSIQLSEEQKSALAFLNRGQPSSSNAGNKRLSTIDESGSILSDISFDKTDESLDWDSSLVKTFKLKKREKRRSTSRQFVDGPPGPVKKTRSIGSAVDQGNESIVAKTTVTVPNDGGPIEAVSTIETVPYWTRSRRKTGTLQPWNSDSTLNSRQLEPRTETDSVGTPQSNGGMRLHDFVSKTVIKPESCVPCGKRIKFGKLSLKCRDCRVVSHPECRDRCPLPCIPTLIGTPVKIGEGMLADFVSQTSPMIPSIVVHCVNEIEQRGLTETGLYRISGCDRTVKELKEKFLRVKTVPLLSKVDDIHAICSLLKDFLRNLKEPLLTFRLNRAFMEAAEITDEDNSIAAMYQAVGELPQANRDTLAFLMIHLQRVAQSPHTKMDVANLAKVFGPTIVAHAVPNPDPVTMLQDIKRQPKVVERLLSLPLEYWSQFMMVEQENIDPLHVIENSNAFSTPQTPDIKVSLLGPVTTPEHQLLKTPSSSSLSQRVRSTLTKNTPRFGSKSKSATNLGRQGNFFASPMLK
# [3] = Counterscreen for activators of the function of SWI/SNF related, matrix associated, actin dependent regulator of chromatin, subfamily a, member 2 (SMARCA2, BRM): Luminescence-based cell-based high throughput dose response assay to identify non-selective compounds using the VP16 reporter assay.; format: functional
# [4] = biological target: SWI/SNF-related matrix-associated actin-dependent regulator of chromatin subfamily A member 2 (Homo sapiens, UniProt P51531); experiment: Luminescence-based cell-based high throughput dose response assay to identify activators of the function of SWI/SNF related, matrix associated, actin dependent regulator of chromatin, subfamily a, member 2 (SMARCA2, BRM).; format: functional
# Chain of SWI/SNF-related matrix-associated actin-dependent regulator of chromatin subfamily A member 2 (P51531 whole entry): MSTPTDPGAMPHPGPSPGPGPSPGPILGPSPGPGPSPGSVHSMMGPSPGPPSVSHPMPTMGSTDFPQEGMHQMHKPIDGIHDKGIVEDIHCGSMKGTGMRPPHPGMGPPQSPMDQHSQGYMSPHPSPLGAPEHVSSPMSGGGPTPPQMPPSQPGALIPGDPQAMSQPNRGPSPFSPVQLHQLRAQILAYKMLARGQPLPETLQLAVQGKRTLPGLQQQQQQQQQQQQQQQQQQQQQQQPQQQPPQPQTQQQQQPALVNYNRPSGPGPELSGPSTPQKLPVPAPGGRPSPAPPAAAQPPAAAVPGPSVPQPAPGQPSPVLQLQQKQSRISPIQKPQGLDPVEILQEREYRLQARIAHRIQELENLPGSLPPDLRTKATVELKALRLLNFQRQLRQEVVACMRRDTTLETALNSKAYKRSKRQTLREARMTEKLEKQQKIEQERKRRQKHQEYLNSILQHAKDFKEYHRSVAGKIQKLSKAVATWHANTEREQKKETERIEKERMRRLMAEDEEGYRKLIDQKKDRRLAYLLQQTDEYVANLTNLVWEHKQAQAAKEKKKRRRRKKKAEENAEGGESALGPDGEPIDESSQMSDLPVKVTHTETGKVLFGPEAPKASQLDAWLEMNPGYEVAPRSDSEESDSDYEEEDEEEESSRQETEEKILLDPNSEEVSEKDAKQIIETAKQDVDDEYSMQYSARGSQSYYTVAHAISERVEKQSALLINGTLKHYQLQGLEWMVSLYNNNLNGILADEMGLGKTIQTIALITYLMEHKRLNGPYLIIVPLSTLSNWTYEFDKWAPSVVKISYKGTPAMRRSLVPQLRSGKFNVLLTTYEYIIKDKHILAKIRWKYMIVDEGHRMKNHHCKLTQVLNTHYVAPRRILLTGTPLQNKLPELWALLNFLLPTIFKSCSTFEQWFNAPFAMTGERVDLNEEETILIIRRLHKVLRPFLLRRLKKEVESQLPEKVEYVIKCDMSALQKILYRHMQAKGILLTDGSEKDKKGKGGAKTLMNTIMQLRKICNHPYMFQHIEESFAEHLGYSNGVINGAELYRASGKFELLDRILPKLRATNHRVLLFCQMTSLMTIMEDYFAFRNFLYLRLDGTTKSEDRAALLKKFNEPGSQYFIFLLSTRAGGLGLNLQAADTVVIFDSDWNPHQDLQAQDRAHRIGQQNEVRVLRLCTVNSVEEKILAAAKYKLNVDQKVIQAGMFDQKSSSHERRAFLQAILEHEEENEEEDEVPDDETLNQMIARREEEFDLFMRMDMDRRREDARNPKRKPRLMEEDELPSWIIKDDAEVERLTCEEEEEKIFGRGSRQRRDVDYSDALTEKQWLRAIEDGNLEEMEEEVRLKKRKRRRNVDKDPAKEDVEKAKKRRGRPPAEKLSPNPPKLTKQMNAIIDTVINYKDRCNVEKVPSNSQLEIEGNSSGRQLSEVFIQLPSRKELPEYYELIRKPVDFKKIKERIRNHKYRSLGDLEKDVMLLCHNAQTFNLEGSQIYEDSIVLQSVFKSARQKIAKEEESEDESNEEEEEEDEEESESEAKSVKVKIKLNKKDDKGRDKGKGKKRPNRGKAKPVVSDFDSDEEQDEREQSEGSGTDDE
# [5] = biological target: Protein Wnt-3a (Mus musculus, UniProt P27467); experiment: SAR analysis of small molecule antagonists of Gli-SUFU in a Wnt3a luminescent reporter assay.; format: functional
# Chain of Protein Wnt-3a (P27467 whole entry): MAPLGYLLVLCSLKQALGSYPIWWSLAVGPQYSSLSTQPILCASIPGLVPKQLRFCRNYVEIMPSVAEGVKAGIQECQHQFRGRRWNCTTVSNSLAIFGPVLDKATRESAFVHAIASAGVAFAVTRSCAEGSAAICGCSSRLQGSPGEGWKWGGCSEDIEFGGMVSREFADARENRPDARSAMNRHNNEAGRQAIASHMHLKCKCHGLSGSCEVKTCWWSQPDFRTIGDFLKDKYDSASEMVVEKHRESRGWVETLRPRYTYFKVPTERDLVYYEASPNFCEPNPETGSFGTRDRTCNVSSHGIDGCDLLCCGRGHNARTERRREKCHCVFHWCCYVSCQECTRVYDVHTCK
# [6] = general cell-killing toxicity readout – plate reader, dry powder samples, cytotoxicity control for PAX8 inhibitor project, dose response (AID 743021); format: functional, cell-based
# [7] = biological target: Paired box protein Pax-8 (Homo sapiens, UniProt Q06710); experiment: PAX8 transcriptional activity inhibition in RMG-I – RMG-I cells, luciferase, cherry-pick, dose response (AID 687027); format: functional, cell-based;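 further: luciferase reporter driven by Pax8 target thyroperoxidase promoter measured by SteadyGlo luminescence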
# Chain of Paired box protein Pax-8 (Q06710 whole entry): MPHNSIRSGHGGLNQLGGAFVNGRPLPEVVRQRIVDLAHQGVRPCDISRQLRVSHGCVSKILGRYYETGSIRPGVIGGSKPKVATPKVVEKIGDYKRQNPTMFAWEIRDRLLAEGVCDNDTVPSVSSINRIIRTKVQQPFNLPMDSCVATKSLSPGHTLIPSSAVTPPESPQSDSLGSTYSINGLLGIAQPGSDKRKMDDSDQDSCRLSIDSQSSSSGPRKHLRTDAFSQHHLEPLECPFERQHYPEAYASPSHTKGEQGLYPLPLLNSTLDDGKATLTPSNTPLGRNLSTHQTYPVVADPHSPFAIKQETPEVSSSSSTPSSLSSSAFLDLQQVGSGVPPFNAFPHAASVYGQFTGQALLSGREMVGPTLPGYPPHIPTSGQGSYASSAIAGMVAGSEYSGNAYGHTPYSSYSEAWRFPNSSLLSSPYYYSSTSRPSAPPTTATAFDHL
# [8] = CMV-driven luciferase expression suppression in HEK293 – cell-based, luminescence, dry powder, counter-screen for Pax8 inhibitor project, dose response (AID 743020); format: functional
# [9] = reduction of Shn3 3'UTR-driven luciferase in osteoblasts – cell-based, Clone20 osteoblasts, firefly luciferase, cherry-picked, dose response (AID 624132); format: functional;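 further: firefly luciferase luminescence from reporter carrying the Shn3 3'UTR in osteoblasts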
# [10] = loss of viability in HepG2 cells – cell-based, CellTiter-Glo, cherry-picked, cytotoxicity control for Shn3 inhibitor project, dose response (AID 624134); format: functional
# [11] = biological target: T2, Replicative DNA helicase DnaB (Mycobacterium tuberculosis, UniProt P9WMR3); experiment: DnaB intein splicing inhibitors, dose response, biochemical, cell-free fluorescence (AID 449749); format: functional
# T2 sequence (P9WMR3 whole entry): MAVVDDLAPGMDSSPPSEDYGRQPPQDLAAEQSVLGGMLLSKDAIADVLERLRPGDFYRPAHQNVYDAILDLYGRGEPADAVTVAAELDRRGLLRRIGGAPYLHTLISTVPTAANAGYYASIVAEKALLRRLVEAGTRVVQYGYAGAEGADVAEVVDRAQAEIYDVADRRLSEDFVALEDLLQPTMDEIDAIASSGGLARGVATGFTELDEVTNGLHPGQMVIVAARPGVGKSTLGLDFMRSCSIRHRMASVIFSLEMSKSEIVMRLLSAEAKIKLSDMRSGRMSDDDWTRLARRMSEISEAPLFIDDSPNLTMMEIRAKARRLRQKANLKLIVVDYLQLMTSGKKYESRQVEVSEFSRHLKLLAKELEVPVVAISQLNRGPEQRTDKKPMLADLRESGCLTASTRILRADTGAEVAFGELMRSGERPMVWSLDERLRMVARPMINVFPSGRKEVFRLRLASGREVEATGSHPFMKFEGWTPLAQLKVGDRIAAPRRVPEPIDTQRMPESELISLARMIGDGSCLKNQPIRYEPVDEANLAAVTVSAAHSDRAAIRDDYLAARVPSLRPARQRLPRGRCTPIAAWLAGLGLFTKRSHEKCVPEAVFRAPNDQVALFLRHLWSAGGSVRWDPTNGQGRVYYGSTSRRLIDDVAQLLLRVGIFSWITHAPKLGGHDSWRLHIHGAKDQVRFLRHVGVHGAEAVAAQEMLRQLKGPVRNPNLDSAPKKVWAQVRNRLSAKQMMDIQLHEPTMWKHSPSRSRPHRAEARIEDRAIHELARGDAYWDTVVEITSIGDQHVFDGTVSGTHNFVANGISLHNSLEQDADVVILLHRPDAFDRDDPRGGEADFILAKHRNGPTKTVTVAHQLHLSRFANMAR
# [12] = biological target: FAD-linked sulfhydryl oxidase ALR (Homo sapiens, UniProt P55789); experiment: ALR-catalysed DTT oxidation blockers – biochemical, H2O2 detection, luminescence, cherry-pick, dose response (AID 493248)
# Chain of FAD-linked sulfhydryl oxidase ALR (P55789 whole entry, the tested form may be a part): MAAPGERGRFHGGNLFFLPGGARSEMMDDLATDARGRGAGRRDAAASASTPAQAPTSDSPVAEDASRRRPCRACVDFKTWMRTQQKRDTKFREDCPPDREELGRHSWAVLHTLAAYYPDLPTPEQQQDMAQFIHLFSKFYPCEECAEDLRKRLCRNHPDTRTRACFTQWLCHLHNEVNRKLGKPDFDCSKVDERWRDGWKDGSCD
# [13] = Fluorescence-based cell-based high throughput dose response assay for inhibitors of the interaction of nucleotide-binding oligomerization domain containing 2 (NOD2) and the receptor-interacting serine-threonine kinase 2 (RIPK2).; format: functional; settings: Homo sapiens
# [14] = non-specific 3'UTR reporter inhibition in Clone20-Shn3RL – cell-based, Renilla luciferase, cherry-picked, counter-screen for Shn3 inhibitor project, dose response (AID 624133); format: functional
# [15] = tested on: HEK293; experiment: cells; settings: Homo sapiens
# [16] = biological target: T3, Protein RecA (Mycobacterium tuberculosis, UniProt P9WHJ3); experiment: Fluorescence Cell-Free Homogeneous Dose Retest to Identify Inhibitors of RecA-Intein Splicing Activity. [Related pubchem assays (depositor defined):AID2097, AID2223, AID489010, AID492950]; format: functional
# T3 sequence (P9WHJ3 whole entry): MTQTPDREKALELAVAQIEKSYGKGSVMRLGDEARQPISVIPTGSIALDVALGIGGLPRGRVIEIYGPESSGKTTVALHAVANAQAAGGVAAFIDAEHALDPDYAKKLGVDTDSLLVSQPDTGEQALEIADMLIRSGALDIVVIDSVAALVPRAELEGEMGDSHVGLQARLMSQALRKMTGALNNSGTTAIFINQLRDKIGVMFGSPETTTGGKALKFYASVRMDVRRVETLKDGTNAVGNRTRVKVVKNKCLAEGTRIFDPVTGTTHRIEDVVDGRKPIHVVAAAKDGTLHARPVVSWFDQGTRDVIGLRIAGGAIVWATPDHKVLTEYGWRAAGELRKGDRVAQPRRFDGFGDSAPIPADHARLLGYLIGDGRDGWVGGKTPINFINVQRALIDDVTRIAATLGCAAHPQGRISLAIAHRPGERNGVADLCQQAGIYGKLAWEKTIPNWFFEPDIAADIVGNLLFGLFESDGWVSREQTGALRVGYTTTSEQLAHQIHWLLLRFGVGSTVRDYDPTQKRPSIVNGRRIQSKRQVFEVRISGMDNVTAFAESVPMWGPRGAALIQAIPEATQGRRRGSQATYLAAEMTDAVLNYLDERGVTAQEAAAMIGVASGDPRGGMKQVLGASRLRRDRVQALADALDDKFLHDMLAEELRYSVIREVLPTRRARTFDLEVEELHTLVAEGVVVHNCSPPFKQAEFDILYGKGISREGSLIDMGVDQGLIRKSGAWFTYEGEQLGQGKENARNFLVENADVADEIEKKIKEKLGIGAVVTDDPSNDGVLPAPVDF
# [17] = tested on: HEK293; experiment: cells; settings: Homo sapiens; remark: listed apart in the source
# [18] = biological target: ATP-binding cassette sub-family B member 6 (Homo sapiens, UniProt Q9NP58); experiment: ABCB6 transporter inhibitors, porphyrin accumulation, dose response, flow cytometry, K562-ABCB6 cells, cherry pick 02 (AID 624487); format: functional; settings: read-out: EC50_MICROM
# Chain of ATP-binding cassette sub-family B member 6 (Q9NP58 whole entry): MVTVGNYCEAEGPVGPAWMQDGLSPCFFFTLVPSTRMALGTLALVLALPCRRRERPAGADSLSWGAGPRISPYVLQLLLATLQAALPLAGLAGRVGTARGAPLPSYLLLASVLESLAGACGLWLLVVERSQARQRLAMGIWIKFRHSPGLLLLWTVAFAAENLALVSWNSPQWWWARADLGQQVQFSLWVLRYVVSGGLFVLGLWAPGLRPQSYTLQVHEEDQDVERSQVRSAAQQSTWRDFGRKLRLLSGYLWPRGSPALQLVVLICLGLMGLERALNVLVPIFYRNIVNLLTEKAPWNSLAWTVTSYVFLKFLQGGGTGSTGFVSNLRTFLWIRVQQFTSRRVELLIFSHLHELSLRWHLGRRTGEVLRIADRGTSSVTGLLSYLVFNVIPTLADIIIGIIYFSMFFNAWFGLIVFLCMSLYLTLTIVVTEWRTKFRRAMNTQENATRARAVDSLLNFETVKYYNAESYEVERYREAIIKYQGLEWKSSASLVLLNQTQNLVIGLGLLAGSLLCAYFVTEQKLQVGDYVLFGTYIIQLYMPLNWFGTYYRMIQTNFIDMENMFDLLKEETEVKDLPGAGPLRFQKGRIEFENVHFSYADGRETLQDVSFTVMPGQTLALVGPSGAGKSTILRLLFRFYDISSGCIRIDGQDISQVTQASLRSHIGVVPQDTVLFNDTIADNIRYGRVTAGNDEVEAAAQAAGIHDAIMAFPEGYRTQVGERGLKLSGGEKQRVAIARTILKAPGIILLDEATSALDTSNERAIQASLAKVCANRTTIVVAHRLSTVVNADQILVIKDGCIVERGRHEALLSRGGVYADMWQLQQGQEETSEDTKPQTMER
# [19] = biological target: T4, Heat shock factor protein 1 (Mus musculus, UniProt P38532); experiment: enhancement of HSF1-driven luciferase signal – cell-based, NIH3T3, luminescence, dose retest, confirmation (AID 435004); format: functional;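 further: stress induced by proteasome inhibitor MG132 added 30 min after compound; luciferase reporter driven by HSF1 response element in NIH3T3 cells; actives raise luminescence as potentiators of the MG132 stress response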
# T4 sequence (P38532 whole entry): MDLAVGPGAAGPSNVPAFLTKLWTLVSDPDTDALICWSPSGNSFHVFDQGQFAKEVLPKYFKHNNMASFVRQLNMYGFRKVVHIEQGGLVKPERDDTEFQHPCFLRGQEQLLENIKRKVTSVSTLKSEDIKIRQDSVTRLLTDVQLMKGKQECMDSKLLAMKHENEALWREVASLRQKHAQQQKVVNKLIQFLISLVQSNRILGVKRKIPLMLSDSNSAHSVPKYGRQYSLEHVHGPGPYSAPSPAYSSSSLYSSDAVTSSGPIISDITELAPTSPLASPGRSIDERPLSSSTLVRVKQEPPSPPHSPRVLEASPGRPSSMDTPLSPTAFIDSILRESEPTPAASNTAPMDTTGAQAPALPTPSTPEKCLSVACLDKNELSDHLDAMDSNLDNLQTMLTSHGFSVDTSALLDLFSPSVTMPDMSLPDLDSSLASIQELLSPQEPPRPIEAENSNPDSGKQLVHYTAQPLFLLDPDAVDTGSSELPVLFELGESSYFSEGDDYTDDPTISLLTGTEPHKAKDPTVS
# [20] = biological target: T5, Scavenger receptor class B member 1 (Mus musculus, UniProt Q61009); experiment: blockers of DiI-HDL lipid transfer via SR-BI – cell-based, ldlA[mSR-BI] CHO, DiI fluorescence, dry powder, set 10, dose response (AID 624029); format: functional
# T5 sequence (Q61009 whole entry): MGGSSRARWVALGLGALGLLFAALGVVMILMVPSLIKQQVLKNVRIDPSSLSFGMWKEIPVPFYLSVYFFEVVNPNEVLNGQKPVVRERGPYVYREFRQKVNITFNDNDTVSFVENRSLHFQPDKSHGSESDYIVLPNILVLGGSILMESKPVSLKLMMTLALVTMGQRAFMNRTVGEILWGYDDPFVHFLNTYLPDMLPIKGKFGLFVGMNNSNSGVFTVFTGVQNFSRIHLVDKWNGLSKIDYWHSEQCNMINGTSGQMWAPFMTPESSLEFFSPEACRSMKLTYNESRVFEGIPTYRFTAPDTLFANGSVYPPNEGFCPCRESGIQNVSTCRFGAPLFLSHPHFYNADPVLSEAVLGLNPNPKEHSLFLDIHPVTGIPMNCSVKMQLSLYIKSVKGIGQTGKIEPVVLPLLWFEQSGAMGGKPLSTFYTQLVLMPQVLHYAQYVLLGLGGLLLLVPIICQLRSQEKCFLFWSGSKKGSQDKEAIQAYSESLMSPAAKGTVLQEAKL
# [21] = biological target: T5, Scavenger receptor class B member 1; experiment: mouse SR-BI DiI-HDL transfer blockers – ldlA[mSR-BI] CHO cells, fluorescence plate reader, dry powder, set 9, dose response (AID 623880); format: functional, cell-based
# [22] = biological target: Botulinum neurotoxin type F (Clostridium botulinum, UniProt P30996); experiment: High-throughput multiplex microsphere dose response for inhibitors of toxin protease, specifically Botulinum neurotoxin light chain F protease, compounds from Cherry Pick 02.; format: functional; settings: read-out: EC50_MICROM
# Chain of Botulinum neurotoxin type F (P30996 1-436 limits assumed): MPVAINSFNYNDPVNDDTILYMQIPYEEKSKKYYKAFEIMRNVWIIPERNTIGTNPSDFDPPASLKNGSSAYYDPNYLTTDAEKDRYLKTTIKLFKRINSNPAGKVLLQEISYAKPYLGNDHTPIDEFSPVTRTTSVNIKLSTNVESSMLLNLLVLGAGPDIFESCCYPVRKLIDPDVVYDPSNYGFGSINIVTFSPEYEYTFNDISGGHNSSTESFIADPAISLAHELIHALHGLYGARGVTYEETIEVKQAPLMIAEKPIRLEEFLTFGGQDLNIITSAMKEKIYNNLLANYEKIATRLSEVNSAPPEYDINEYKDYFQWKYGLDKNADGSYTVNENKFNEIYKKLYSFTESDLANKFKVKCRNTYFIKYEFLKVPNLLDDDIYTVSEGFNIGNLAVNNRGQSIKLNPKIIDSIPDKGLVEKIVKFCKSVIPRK
# [23] = biological target: Fructose-bisphosphate aldolase (Mycobacterium tuberculosis, UniProt P9WQA3); experiment: Fluorescence-based biochemical high throughput dose response assay for inhibitors of the fructose-bisphosphate aldolase (FBA) of M. tuberculosis.; format: functional
# Chain of Fructose-bisphosphate aldolase (P9WQA3 whole entry): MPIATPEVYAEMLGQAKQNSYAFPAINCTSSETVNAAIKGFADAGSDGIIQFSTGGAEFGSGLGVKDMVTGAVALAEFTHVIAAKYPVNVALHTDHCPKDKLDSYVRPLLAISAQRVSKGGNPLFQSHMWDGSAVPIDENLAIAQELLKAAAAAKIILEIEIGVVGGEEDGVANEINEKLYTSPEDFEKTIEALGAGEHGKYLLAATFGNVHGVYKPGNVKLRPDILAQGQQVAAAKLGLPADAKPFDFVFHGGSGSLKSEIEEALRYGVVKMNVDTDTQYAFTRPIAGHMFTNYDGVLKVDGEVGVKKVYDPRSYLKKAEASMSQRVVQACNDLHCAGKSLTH
structure (smiles),measurement,setting,value
CN(C)/C=C/c1oc2ccc(O)cc2c1[N+](=O)[O-],IC50,[1],26.2 µM (inactive)
same,IC50,[2],14 µM (active)
COc1ccc(-c2nc(C#N)c(NCC3CCCO3)o2)cc1 (stereo not drawn),EC50,[3],> 91.1 µM (inactive)
same,EC50,[4],> 91.1 µM (inactive)
N#Cc1ccc(C(=O)Nc2cc(N3CCCCC3)ncn2)cc1,IC50,[5],> 21.8 µM (inactive)
COc1ccccc1S(=O)(=O)N(C)C[C@H]1Oc2cc(C#CCC3CCCC3)ccc2S(=O)(=O)N([C@@H](C)CO)C[C@H]1C,AC50,[6],51.9 µM (active)
same,AC50,[7],9.5 µM (active)
same,AC50,[8],55.2 µM (active)
Cc1cccc(C)c1NC(=O)c1nc(S(=O)(=O)Cc2ccccc2)ncc1Cl,AC50,[9],4.33 µM (active)
same,AC50,[10],22.9 µM (active)
same,AC50,[11],4.34 µM (active)
same,AC50,[12],1.74 µM (active)
same,IC50,[13],4.11 µM (active)
same,AC50,[14],10.6 µM (active)
same,EC50,[15],> 59.6 µM (inactive)
same,EC50,[16],6.63 µM (active)
same,EC50,[17],> 59.6 µM (inactive)
same,EC50,[18],38.1 µM (active)
same,EC50,[19],9.13 µM (active)
COCC(=O)N1CCc2cc(-c3csc(NC(=O)c4cc(OC)cc(OC)c4)n3)ccc21,AC50,[20],0.00538 µM (active)
same,AC50,[21],0.00684 µM (active)
Cc1cc2cc(CNC(=O)c3ccc(S(=O)(=O)N4CCCCC4)cc3)ccc2[nH]1,EC50,[22],> 20 µM (inactive)
Cc1ccc(-c2cnc(-c3ccccc3C(=O)O)o2)cc1,IC50,[23],0.919 µM (active)
